Like-named read-outs stand apart in the source and are kept apart here.
Assays:
[1] = system: gt 1b Replicon; experiment: HCV replicon assay, compound inhibitory potency (Replicon EC50); assay type: cell-based; conditions: Hepatitis C virus, GT1B
Method: Measurement of inhibition by compounds was performed using the HCV replicon system. Several different replicons encoding different HCV genotypes or mutations were used. In addition, potency measurements were made using different formats of the replicon assay, including different ways of measurements and different plating formats. See Jan M. Vrolijk et al., A replicons-based bioassay for the measurement of interferons in patients with chronic hepatitis C, 110 J. VIROLOGICAL METHODS 201 (2003); Steven S. Carroll et al., Inhibition of Hepatitis C Virus RNA Replication by 2′-Modified Nucleoside Analogs, 278(14) J. BIOLOGICAL CHEMISTRY 11979 (2003). However, the underlying principles are common to all of these determinations, and are outlined below.
Stable neomycin phosphotransferase encoding replicon-harboring cell lines were used, so all cell lines were maintained under G418 selection prior to the assay. In some cases the cell lines encoded a luciferase:Neor fusion and could be assayed either directly by determination of RNA copy number, or indirectly through measurement of the luciferase activity.
To initiate an assay, replicon cells were plated in the presence of a dilution series of test compound in the absence of G418. Typically, the assays were performed in a 96-well plate format for manual operation, or a 384 well plate in an automated assay. Replicon cells and compound were incubated for 24-48 hours, depending on the assay. At the end of the assay, cells are washed free of media and compound and then lysed. For direct quantitation, RNA levels were measured by ^32P-probe hybridization and protection, or in a TAQMAN based assay and normalized to cellular cyclophilin A RNA levels. In some cases, luciferase activity was measured using a conventional luciferase assay. In all cases EC50 determinations were calculated as a percent of a DMSO control by fitting the data to a four parameter fit function.

[2] = target: NS3/4A protease gt 1b (Hepatitis C virus genotype 1b, UniProt P26663); experiment: HCV NS3 protease time-resolved fluorescence (TRF) assay, NS3/4A inhibitory activity (Ki), gt 1b; assay type: biochemical; conditions: genotype 1b NS3/4A; read-out: Enzyme Activity gt 1b Ki
Method: (§1) The HCV NS3 protease inhibitory activity of the present compounds may be tested using assays known in the art. One such assay is HCV NS3 protease time-resolved fluorescence (TRF) assay as described below and in International Patent Application Publication WO2006/102087. Other examples of such assays are described in e.g., International Patent Application Publication WO2005/046712. HCV NS3 protease inhibitors, such as those described herein have a Ki less than 50 μM, such as less than 10 μM, and less than 100 nM. Ki is determined by an NS3 protease assay. The assay is performed in a final volume of 100 μl in assay buffer containing 50 mM HEPES, pH 7.5, 150 mM NaCl, 15% glycerol, 0.15% TRITON X-100, 10 mM DTT, and 0.1% PEG 8000. NS3 protease is pre-incubated with various concentrations of inhibitors in DMSO for 30 minutes. The reaction is initiated by adding the TRF peptide substrate (final concentration 100 nM). NS3 mediated hydrolysis of the substrate is quenched after 1 hour at room temperature with 100 μl of 500 mM MES, pH 5.5. Product fluorescence is detected using either a VICTOR V2 or FUSION fluorophotometer (Perkin Elmer Life and Analytical Sciences) with excitation at 340 nm and emission at 615 nm with a 400 μs delay. Testing concentrations of different enzyme forms are selected to result in a signal to background ratio (S/B) of 10-30. IC50 values are derived using a standard four-parameter fit to the data. Ki values are derived from IC50 values using the following formula,
(§2) IC50=Ki(1+[S]/KM), Eqn (1),
(§3) where [S] is the concentration of substrate peptide in the reaction and KM is the Michaelis constant. See P. Gallinari et al., 38 BIOCHEM. 5620-32 (1999); P. Gallinari et al., 72 J. VIROL. 6758-69 (1998); M. Taliani et al., 240 ANAL. BIOCHEM. 60-67 (1996).
(§4) One such assay is HCV NS3 protease time-resolved fluorescence (TRF) assay as described below and in Mao et al., Anal Biochem. 373:1-8, 2008 and International Patent Application Publication WO 2006/102087. A NS3 protease assay can be performed, for example, in a final volume of 100 μl assay buffer containing 50 mM HEPES, pH 7.5, 150 mM NaCl, 15% glycerol, 0.15% TRITON X-100, 10 mM DTT, and 0.1% PEG 8000. NS3 and NS4A protease is pre-incubated with various concentrations of inhibitors in DMSO for 30 minutes. The reaction is initiated by adding the TRF peptide substrate (final concentration 100 nM). NS3 mediated hydrolysis of the substrate is quenched after 1 hour at room temperature with 100 μl of 500 mM MES, pH 5.5. Product fluorescence is detected using either a VICTOR V2 or FUSION fluorophotometer (Perkin Elmer Life and Analytical Sciences) with excitation at 340 nm and emission at 615 nm with a 400 μs delay. Testing concentrations of different enzyme forms are selected to result in a signal to background ratio (S/B) of 10-30. IC50 values are derived using a standard four-parameter fit to the data. Ki values are derived from IC50 values using the following formula,
as §3, with “(1996); Mao et al., Analytical Biochemistry 373: 1-8, 2008. Measuring Compound Inhibitory Potency (Replicon EC50 (nM))” for “(1996).”

[3] = target: NS3/4A protease gt 3a (Hepatitis C virus genotype 3a, UniProt Q81258); experiment: HCV NS3 protease time-resolved fluorescence (TRF) assay, NS3/4A inhibitory activity (Ki), gt 3a; assay type: biochemical; conditions: genotype 3a NS3/4A; read-out: Enzyme Activity gt 3a Ki
Method: as §1, §2, §3, §4
as §3, with “(1996); Mao et al., Analytical Biochemistry 373: 1-8, 2008. Measuring Compound Inhibitory Potency (Replicon EC50 (nM))” for “(1996).”

[4] = target: NS3/4A protease gt 1b A156V (Hepatitis C virus genotype 1b, UniProt P26663, A1182V); experiment: HCV NS3 protease time-resolved fluorescence (TRF) assay, NS3/4A inhibitory activity (Ki), gt 1b A156V mutant; assay type: biochemical, hepatitis C virus (HCV)
Method: as §1, §2, §3, §4
as §3, with “(1996); Mao et al., Analytical Biochemistry 373: 1-8, 2008. Measuring Compound Inhibitory Potency (Replicon EC50 (nM))” for “(1996).”

[5] = 10% Fetal Bovine Serum, read-out: gt 1b Replicon EC50 10% FBS
[6] = 50% Normal Human Serum, read-out: gt 1b Replicon EC50 50% NHS

Row | Structure (SMILES) | EC50 [1, 5] [nM] | EC50 [1, 6] [nM] | Ki [2] [nM] | Ki [3] [nM] | Ki [4] [nM]
1 | C=C[C@@H]1C[C@]1(NC(=O)[C@@H]1C[C@@H]2CN1C(=O)[C@H](C1CCCC1)NC(=O)O[C@]1(C)C[C@H]1CCCCCc1nc3cccc(OC)c3nc1O2)C(=O)NS(=O)(=O)C1(C)CC1 [Example I-1, (1R,18R,20R,24S,27S)-24-Cyclopentyl-6-methoxy-20-methyl-N-[(1R,2S)-1-({[(1-methylcyclopropyl)sulfonyl]amino}carbonyl)-2-vinylcyclopropyl]-22,25-dioxo-2,21-dioxa-4,11,23,26-tetraazapentacyclo[24.2.1.0^3,12.0^5,10.0^18,20]nonacosa-3,5,7,9,11-pentaene-27-carboxamide] | 2 | 7.6 | 0.04 | 1.6 | 1
2 | C=C[C@@H]1C[C@]1(NC(=O)[C@@H]1C[C@@H]2CN1C(=O)[C@H](C1CCCC1)NC(=O)O[C@]1(C)CCC[C@H]1CCCCCc1nc3ccc(OC)cc3cc1O2)C(=O)NS(=O)(=O)C1CC1 [Example I-3, (1R,18R,22R,26S,29S)-26-Cyclopentyl-N-((1R,2S)-1-{[(cyclopropylsulfonyl)amino]carbonyl}-2-vinylcyclopropyl)-7-methoxy-22-methyl-24,27-dioxo-2,23-dioxa-11,25,28-triazapentacyclo[26.2.1.0^3,12.0^5,10.0^18,22]hentriaconta-3(12),4,5,7,9,10-hexaene-29-carboxamide] | 6 | 23 | 0.03 | 0.5 | 3.3
3 | C=C[C@@H]1C[C@]1(NC(=O)[C@@H]1C[C@@H]2CN1C(=O)[C@H](C1CCCC1)NC(=O)O[C@]1(C)C[C@H]1CC/C=C/Cc1c(nc3ccccc3c1O)O2)C(=O)NS(=O)(=O)C1CC1 [Example I-4, (1R,14E,18R,20R,24S,27S)-24-Cyclopentyl-N-((1R,2S)-1-{[(cyclopropylsulfonyl)amino]carbonyl}-2-vinylcyclopropyl)-11-hydroxy-20-methyl-22,25-dioxo-2,21-dioxa-4,23,26-triazapentacyclo[24.2.1.0^3,12.0^5,10.0^18,20]nonacosa-3,5,7,9,11,14-hexaene-27-carboxamide] | 7 | 17 | 0.04 | 0.7 | 0.9
4 | C=C[C@@H]1C[C@]1(NC(=O)[C@@H]1C[C@@H]2CN1C(=O)[C@H](C(C)(C)C)NC(=O)O[C@]1(C)C[C@H]1CCC/C=C/c1cccc3c1CN(C3)C(=O)O2)C(=O)NS(=O)(=O)C1CC1 [Example I-5, (1aR,5S8S,10R,19E,23aR)-5-tert-butyl-N-{(1R,2S)-1-[(cyclopropylsulfonyl)carbamoyl]-2-ethenylcyclopropyl}-1a-methyl-3,6,12-trioxo-1a,3,4,5,6,9,10,14,21,22,23,23a-dodecahydro-1H,8H-7,10:13,15-dimethanocycloproa[n][4,13,2,8,11]benzodioxatriazacyclodocosine-8(12H)-carboxamide] | 3 | 22 | 0.02 | 1 | 1.3
5 | C=C[C@@H]1C[C@]1(NC(=O)[C@@H]1C[C@@H]2CN1C(=O)[C@H](C(C)(C)C)NC(=O)O[C@]1(C)C[C@H]1CCCCCc1cccc3c1CN(C3)C(=O)O2)C(=O)NS(=O)(=O)C1CC1 [Example I-6, (1aR,5S,8S,10R,23aR)-5-tert-butyl-N-{(1R,2S)-1-[(cyclopropylsulfonyl)carbamoyl]-2-ethenylcyclopropyl}-1a-methyl-3,6,12-trioxo-1a,3,4,5,6,9,10, 14,19,20,21,22,23,23a-tetradecahydro-1H,8H-7,10:13,15-dimethano cyclopropa [n][4,13,2,8,11] benzodioxatriaza cyclodocosine-8(12H)-carboxamide] | 3 | 54 | 0.02 | 2.9 | 0.3
6 | CC[C@@H]1C[C@]1(NC(=O)[C@@H]1C[C@@H]2CN1C(=O)[C@H](C(C)(C)C)NC(=O)O[C@]1(C)C[C@H]1CCCCCc1cccc3c1CN(C3)C(=O)O2)C(=O)NS(=O)(=O)C1CC1 [Example I-7, (1aR,5S,8S,10R,23aR)-5-tert-butyl-N-{(1R,2R)-1-[(cyclopropylsulfonyl)carbamoyl]-2-ethylcyclopropyl}-1a-methyl-3,6,12-trioxo-1a,3,4,5,6,9,10,14,19, 20,21,22,23,23a-tetradecahydro-1H,8H-7,10:13,15-dimethano cyclopropa[n][4,13,2,8, 11]benzodioxatriaza cyclodocosine-8(12H)-carboxamide] | 4 | 27 | 0.02 | 8.7 | 2.2
7 | C=C[C@@H]1C[C@]1(NC(=O)[C@@H]1C[C@@H]2CN1C(=O)[C@H](C1CCCC1)NC(=O)O[C@@]1(C)C[C@@H]1CC/C=C/Cn1c(nc3cc(Cl)ccc3c1=O)O2)C(=O)NS(=O)(=O)C1CC1 [Example I-25, (1aS,5S,8S,10R,20E,23aS)-14-chloro-5-cyclopentyl-N-{(1R,2S)-1-[(cyclopropylsulfonyl)carbamoyl]-2-ethenylcyclopropyl}-1a-methyl-3,6,17-trioxo-1,1a,3,4,5,6,9, 10,19,22,23,23a-dodecahydro-8H,17H-7,10-methanocyclo propa[18,19][1,10,3,6, 12]dioxatriazacyclo nonadecino[11,12-b]quinazoline-8-carboxamide] |  |  | 0.2 | 41 | 142
